According to ChEMBL document CHEMBL5500372, “Novel natural osthole-inspired amphiphiles as membrane targeting antibacterials against methicillin-resistant Staphylococcus aureus (MRSA)” (Eur J Med Chem, 2024):
In brackets after ≈: the same amount, converted by molar mass.

Tests used:
Staphylococcus aureus [1] = assay: Antibacterial activity against Staphylococcus aureus ATCC 29213 measured after 18 hrs by CLSI based broth microdilution method; assay type: functional
Staphylococcus aureus [2] = assay: Antibacterial activity against methicillin-resistant Staphylococcus aureus clinical isolate 17 measured after 18 hrs by CLSI based broth microdilution method; assay type: functional
Staphylococcus aureus [3] = assay: Antibacterial activity against methicillin-resistant Staphylococcus aureus clinical isolate 13 measured after 18 hrs by CLSI based broth microdilution method; assay type: functional
Staphylococcus aureus [4] = assay: Antibacterial activity against methicillin-resistant Staphylococcus aureus clinical isolate 23 measured after 18 hrs by CLSI based broth microdilution method; assay type: functional
Staphylococcus aureus [5] = assay: Antibacterial activity against methicillin-resistant Staphylococcus aureus clinical isolate 16 measured after 18 hrs by CLSI based broth microdilution method; assay type: functional
Staphylococcus aureus [6] = assay: Antibacterial activity against methicillin-resistant Staphylococcus aureus clinical isolate 21 measured after 18 hrs by CLSI based broth microdilution method; assay type: functional
Staphylococcus aureus [7] = assay: Antibacterial activity against methicillin-resistant Staphylococcus aureus clinical isolate 11 measured after 18 hrs by CLSI based broth microdilution method; assay type: functional
Staphylococcus aureus [8] = assay: Antibacterial activity against methicillin-resistant Staphylococcus aureus clinical isolate 12 measured after 18 hrs by CLSI based broth microdilution method; assay type: functional
Staphylococcus aureus [9] = assay: Antibacterial activity against methicillin-resistant Staphylococcus aureus clinical isolate 20 measured after 18 hrs by CLSI based broth microdilution method; assay type: functional
Staphylococcus aureus [10] = assay: Antibacterial activity against methicillin-resistant Staphylococcus aureus clinical isolate 22 measured after 18 hrs by CLSI based broth microdilution method; assay type: functional
Staphylococcus aureus [11] = assay: Antibacterial activity against methicillin-resistant Staphylococcus aureus clinical isolate 14 measured after 18 hrs by CLSI based broth microdilution method; assay type: functional
Escherichia coli = assay: Antibacterial activity against Escherichia coli ATCC 25922 measured after 18 hrs by CLSI based broth microdilution method; assay type: functional
[12] = Hemolytic activity in sheep erythrocyte assessed as hemolysis incubated for 1 hr by absorbance based analysis; assay type: toxicity, cell-based, Ovis aries; conditions: sheep erythrocytes
[13] = Selectivity index, ratio of HC50 for hemolytic activity in sheep erythrocyte assessed as hemolysis to MIC for antibacterial activity against Staphylococcus aureus ATCC 29213; assay type: toxicity; conditions: sheep erythrocytes, read-out: Selectivity Index

Row | SMILES | MIC (Staphylococcus aureus [1]) | MIC (Staphylococcus aureus [2]) | MIC (Staphylococcus aureus [3]) | MIC (Staphylococcus aureus [4]) | MIC (Staphylococcus aureus [5]) | MIC (Staphylococcus aureus [6]) | MIC (Staphylococcus aureus [7]) | MIC (Staphylococcus aureus [8]) | MIC (Staphylococcus aureus [9]) | MIC (Staphylococcus aureus [10]) | MIC (Staphylococcus aureus [11]) | MIC (Escherichia coli) | HC50 at 1 h [12] | selectivity ratio [13]
1 | CCCCCNC(=O)C[N+](C)(C)CCCCOc1ccc2ccc(=O)oc2c1CC=C(C)C.[Br-] | 8 µg/mL | 8 µg/mL | 16 µg/mL | 8 µg/mL | 8 µg/mL | 8 µg/mL | 8 µg/mL | 16 µg/mL | 8 µg/mL | 8 µg/mL | 8 µg/mL | 64 µg/mL | > 1280 µg/mL | > 160
2 | CCCCN(CCCC)C(=O)C[N+](C)(C)CCCCCOc1ccc2ccc(=O)oc2c1CC=C(C)C.[Br-] | 1 µg/mL | 1 µg/mL | 2 µg/mL | 1 µg/mL | 1 µg/mL | 1 µg/mL | 1 µg/mL | 2 µg/mL | 1 µg/mL | 1 µg/mL | 1 µg/mL | 128 µg/mL | 989 µg/mL | 989
3 | CCCCNC(=O)C[N+](C)(C)CCCCCOc1ccc2ccc(=O)oc2c1CC=C(C)C.[Br-] | 8 µg/mL | 8 µg/mL | 8 µg/mL | 8 µg/mL | 8 µg/mL | 8 µg/mL | 8 µg/mL | 16 µg/mL | 8 µg/mL | 8 µg/mL | 8 µg/mL | 128 µg/mL | 798 µg/mL | 99.8
4 | CCCNC(=O)C[N+](C)(C)CCCCCOc1ccc2ccc(=O)oc2c1CC=C(C)C.[Br-] | 32 µg/mL | 32 µg/mL | 32 µg/mL | 32 µg/mL | 16 µg/mL | 32 µg/mL | 32 µg/mL | 32 µg/mL | 32 µg/mL | 32 µg/mL | 16 µg/mL | 128 µg/mL | 1140 µg/mL | 35.8
5 | CCCN(CCC)C(=O)C[N+](C)(C)CCCCOc1ccc2ccc(=O)oc2c1CC=C(C)C.[Br-] | 16 µg/mL | 16 µg/mL | 32 µg/mL | 16 µg/mL | 16 µg/mL | 16 µg/mL | 16 µg/mL | 32 µg/mL | 32 µg/mL | 16 µg/mL | 16 µg/mL | > 128 µg/mL | > 1280 µg/mL | > 80
6 | CCCNC(=O)C[N+](C)(C)CCCCOc1ccc2ccc(=O)oc2c1CC=C(C)C.[Br-] | 64 µg/mL | 64 µg/mL | 64 µg/mL | 64 µg/mL | 32 µg/mL | 64 µg/mL | 64 µg/mL | 64 µg/mL | 64 µg/mL | 64 µg/mL | 32 µg/mL | 128 µg/mL | > 1280 µg/mL | > 20
7 | CCCCCCNC(=O)C[N+](C)(C)CCCCOc1ccc2ccc(=O)oc2c1CC=C(C)C.[Br-] | 4 µg/mL | 4 µg/mL | 4 µg/mL | 2 µg/mL | 2 µg/mL | 4 µg/mL | 4 µg/mL | 8 µg/mL | 4 µg/mL | 4 µg/mL | 4 µg/mL | 64 µg/mL | > 1280 µg/mL | > 320
8 | CCCNC(=O)C[N+](C)(C)CCCOc1ccc2ccc(=O)oc2c1CC=C(C)C.[Br-] | 128 µg/mL | 128 µg/mL | 128 µg/mL | 128 µg/mL | 128 µg/mL | 128 µg/mL | 128 µg/mL | 64 µg/mL | 128 µg/mL | 128 µg/mL | 128 µg/mL | 128 µg/mL | > 1280 µg/mL | > 10
9 | COc1ccc2ccc(=O)oc2c1CC=C(C)C [OSTHOLE] | > 64 µg/mL | 64 µg/mL (≈ 262 µM) | > 64 µg/mL | > 64 µg/mL | 64 µg/mL (≈ 262 µM) | > 64 µg/mL | > 64 µg/mL | 64 µg/mL (≈ 262 µM) | 64 µg/mL (≈ 262 µM) | 64 µg/mL (≈ 262 µM) | 64 µg/mL (≈ 262 µM) | > 64 µg/mL | > 80 µg/mL | –
10 | CCN(CC)C(=O)C[N+](C)(C)CCCCOc1ccc2ccc(=O)oc2c1CC=C(C)C.[Br-] | 64 µg/mL | 64 µg/mL | 128 µg/mL | 64 µg/mL | 64 µg/mL | 64 µg/mL | 128 µg/mL | 128 µg/mL | 64 µg/mL | 64 µg/mL | 64 µg/mL | > 128 µg/mL | 1220 µg/mL | 19
11 | CCNC(=O)C[N+](C)(C)CCCOc1ccc2ccc(=O)oc2c1CC=C(C)C.[Br-] | 128 µg/mL | 128 µg/mL | 128 µg/mL | 128 µg/mL | 128 µg/mL | 128 µg/mL | 128 µg/mL | 128 µg/mL | 128 µg/mL | 128 µg/mL | 128 µg/mL | > 128 µg/mL | > 640 µg/mL | > 5
12 | CCNC(=O)C[N+](C)(C)CCCCCOc1ccc2ccc(=O)oc2c1CC=C(C)C.[Br-] | 64 µg/mL | 64 µg/mL | 64 µg/mL | 32 µg/mL | 32 µg/mL | 64 µg/mL | 64 µg/mL | 64 µg/mL | 64 µg/mL | 32 µg/mL | 32 µg/mL | > 128 µg/mL | > 1280 µg/mL | > 20
13 | CCCCN(CCCC)C(=O)C[N+](C)(C)CCCCOc1ccc2ccc(=O)oc2c1CC=C(C)C.[Br-] | 2 µg/mL | 4 µg/mL | 4 µg/mL | 4 µg/mL | 2 µg/mL | 2 µg/mL | 4 µg/mL | 8 µg/mL | 2 µg/mL | 2 µg/mL | 4 µg/mL | 64 µg/mL | > 1280 µg/mL | > 640
14 | CCCCNC(=O)C[N+](C)(C)CCCOc1ccc2ccc(=O)oc2c1CC=C(C)C.[Br-] | 32 µg/mL | 32 µg/mL | 32 µg/mL | 32 µg/mL | 32 µg/mL | 32 µg/mL | 64 µg/mL | 64 µg/mL | 64 µg/mL | 32 µg/mL | 32 µg/mL | 128 µg/mL | > 1280 µg/mL | > 40
15 | CC(C)=CCc1c(OCCCC[N+](C)(C)CC(=O)N(CC(C)C)CC(C)C)ccc2ccc(=O)oc12.[Br-] | 4 µg/mL | 1 µg/mL | 4 µg/mL | 2 µg/mL | 2 µg/mL | 2 µg/mL | 2 µg/mL | 4 µg/mL | 2 µg/mL | 4 µg/mL | 2 µg/mL | 128 µg/mL | > 1280 µg/mL | > 320
16 | CC(C)=CCc1c(OCCCCC[N+](C)(C)CC(=O)N(C(C)C)C(C)C)ccc2ccc(=O)oc12.[Br-] | 4 µg/mL | 4 µg/mL | 8 µg/mL | 4 µg/mL | 4 µg/mL | 4 µg/mL | 8 µg/mL | 8 µg/mL | 4 µg/mL | 4 µg/mL | 4 µg/mL | > 128 µg/mL | 736 µg/mL | 184
17 | CCCCN(CCCC)C(=O)C[N+](C)(C)CCCOc1ccc2ccc(=O)oc2c1CC=C(C)C.[Br-] | 4 µg/mL | 8 µg/mL | 4 µg/mL | 4 µg/mL | 4 µg/mL | 4 µg/mL | 4 µg/mL | 8 µg/mL | 4 µg/mL | 4 µg/mL | 4 µg/mL | 128 µg/mL | 1090 µg/mL | 272
18 | CCCN(CCC)C(=O)C[N+](C)(C)CCCCCOc1ccc2ccc(=O)oc2c1CC=C(C)C.[Br-] | 8 µg/mL | 8 µg/mL | 8 µg/mL | 8 µg/mL | 8 µg/mL | 8 µg/mL | 8 µg/mL | 16 µg/mL | 8 µg/mL | 4 µg/mL | 8 µg/mL | 128 µg/mL | 779 µg/mL | 97.4
19 | CCNC(=O)C[N+](C)(C)CCCCOc1ccc2ccc(=O)oc2c1CC=C(C)C.[Br-] | 128 µg/mL | 128 µg/mL | 128 µg/mL | 128 µg/mL | 128 µg/mL | 128 µg/mL | 128 µg/mL | 128 µg/mL | 64 µg/mL | 128 µg/mL | 128 µg/mL | 128 µg/mL | > 1280 µg/mL | > 10
20 | CCN(CC)C(=O)C[N+](C)(C)CCCCCOc1ccc2ccc(=O)oc2c1CC=C(C)C.[Br-] | 32 µg/mL | 32 µg/mL | 32 µg/mL | 32 µg/mL | 32 µg/mL | 32 µg/mL | 32 µg/mL | 64 µg/mL | 32 µg/mL | 32 µg/mL | 32 µg/mL | 128 µg/mL | > 1280 µg/mL | 40
21 | C[C@@H](O)[C@H]1C(=O)N2C(C(=O)O)=C(S[C@@H]3CN[C@H](C(=O)N(C)C)C3)[C@H](C)[C@H]12 [MEROPENEM] | – | – | – | – | – | – | – | – | – | – | – | 0.062 µg/mL (≈ 0.162 µM) | – | –
